What was measured:
[1] = molecular target: T1, human IBAT (Homo sapiens, UniProt Q12908); test: IBAT (h/m) assay, human IBAT-overexpressing cells, 3H-taurocholic acid uptake; format: cell-based; details: 0.25 μM 3H-taurocholic acid + 5 μM cold taurocholic acid, 20 minutes, read-out: hIBAT IC50
T1 construct: expressed in transfected cells; Puromycin-selected IBAT-overexpressing cells
T1 sequence (Q12908 1-348): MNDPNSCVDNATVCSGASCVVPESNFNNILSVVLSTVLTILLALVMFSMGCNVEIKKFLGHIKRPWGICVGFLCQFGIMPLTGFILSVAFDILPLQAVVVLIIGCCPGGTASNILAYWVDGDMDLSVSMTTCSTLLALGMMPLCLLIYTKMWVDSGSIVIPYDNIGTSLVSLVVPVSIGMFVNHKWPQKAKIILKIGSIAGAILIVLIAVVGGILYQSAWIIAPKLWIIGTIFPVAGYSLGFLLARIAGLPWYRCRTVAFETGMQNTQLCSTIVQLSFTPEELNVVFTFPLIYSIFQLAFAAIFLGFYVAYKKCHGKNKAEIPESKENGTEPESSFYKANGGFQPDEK
Procedure: 10,000 cells (Human or Mouse IBAT-overexpressing cells) were seeded in 96-wells plate (Corning CLS3809) in 200 μL MEM-alpha medium (Gibco 12571-063) supplemented with 10% FBS (Gibco 10438026) containing Puromycin (Gibco A1113803) (10 μg/mL) and incubated at 37° C. in 5% CO2 for 48 hours. After incubation, media was decanted from the wells and cells were washed two times with 300 μL of basal MEM-alpha medium (FBS-free). After decanting basal MEM-alpha medium each time, plates were tapped against paper towel to ensure maximum removal of residual media. Test inhibitor dilutions (highest test concentration being 10 μM, 3-fold serial dilution, 10 points) prepared in DMSO (Sigma D2650) were added in incubation mix (maintaining 0.2% final DMSO concentration) containing 0.25 μM 3H-taurocholic acid (ARC ART-1368) and 5 μM of cold taurocholic acid (Sigma T4009). 50 μL of incubation mix containing test inhibitors was then added to the wells (in duplicate) and the plates were incubated for 20 minutes in a CO2 incubator at 37° C. After incubation, the reaction was stopped by keeping the plates on ice water mix for 2-3 minutes and then the incubation mix was aspirated completely from the wells. The wells were washed two times with 250 μL of chilled unlabelled 1 mM taurocholic acid dissolved in HEPES (Gibco 15630080)-buffered (10 mM) HBSS (Gibco 14175079) (pH 7.4). The plates were tapped against a paper towel after every wash to ensure maximum removal of blocking buffer.
(§1) 100 μL of MicroScint-20 (PerkinElmer 6013621) was added to the wells and kept overnight at room temperature before reading the plates in TopCount NXT™ Microplate Scintillation and Luminescence Counter from PerkinElmer under 3H Test protocol (set at 120 seconds reading time per well).
(§2) All test compounds were provided in powder form at room temperature. 10 mM DMSO stocks of the test compounds were prepared, aliquoted and stored at −20° C. From the 10 mM DMSO stock of the compounds, a 3-fold serial dilution in DMSO was prepared to get a total of 10 dilutions of the test compounds. 0.5 μL of this dilution in DMSO was added to 250 μL of FBS-free basal media containing 3H-taurocholic acid and cold taurocholic acid to prepare the incubation mixture.

[2] = molecular target: T2, human LBAT (Homo sapiens, UniProt Q14973); test: LBAT (h/m) assay, human LBAT-overexpressing cells, 3H-taurocholic acid uptake; format: cell-based; details: 0.3 μM 3H-taurocholic acid + 7.5 μM cold taurocholic acid, 20 minutes, read-out: hLBAT IC50
T2 construct: expressed in transfected cells; Geneticin-selected LBAT-overexpressing cells
T2 sequence (Q14973 1-349): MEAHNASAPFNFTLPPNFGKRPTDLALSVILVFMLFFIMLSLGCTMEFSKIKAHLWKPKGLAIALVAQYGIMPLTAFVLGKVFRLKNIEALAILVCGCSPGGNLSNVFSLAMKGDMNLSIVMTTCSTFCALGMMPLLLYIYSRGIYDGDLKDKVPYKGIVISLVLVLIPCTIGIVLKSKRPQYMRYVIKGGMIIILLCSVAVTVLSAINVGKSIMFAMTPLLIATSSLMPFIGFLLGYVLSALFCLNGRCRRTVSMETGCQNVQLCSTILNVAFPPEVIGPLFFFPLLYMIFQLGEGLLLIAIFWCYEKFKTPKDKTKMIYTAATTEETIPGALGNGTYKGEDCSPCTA
Procedure: 20,000 cells (Human or Mouse LBAT-overexpressing cells) were seeded in 96-wells plate (Corning CLS3809) in 100 μL MEM-alpha medium (Gibco 12571-063) supplemented with 10% FBS (Gibco 10438026) containing Geneticin (Gibco 10131-027) (1 mg/mL) and incubated at 37° C. in 5% CO2 for 24 hours. After incubation, media was decanted from the wells and cells were washed two times with 300 μL of basal MEM-alpha medium (FBS-free). After decanting basal MEM-alpha medium each time, plates were tapped against paper towel to ensure maximum removal of residual media.
For human LBAT, incubation mix was prepared by adding test inhibitor dilutions (3-fold serial dilution in DMSO (Sigma D2650), 10 points) in MEM-alpha (without FBS) containing 0.3 μM 3H-taurocholic acid (ARC ART-1368) and 7.5 μM cold taurocholic acid (Sigma T4009) (maintaining 0.2% final DMSO concentration). For mouse LBAT, incubation mix was prepared by adding test inhibitor dilutions (3-fold serial dilution in DMSO, 10 points) in MEM-alpha (without FBS) containing 0.3 μM 3H-taurocholic acid and 25 μM cold taurocholic acid maintaining 0.2% final DMSO concentration).
50 μL of incubation mix containing test inhibitors was then added to the wells (in duplicate) and the plates were incubated for 20 minutes in a CO2 incubator at 37° C. After incubation, the reaction was stopped by keeping the plates on ice water mix for 2-3 minutes and then the incubation mix was aspirated completely from the wells. The wells were washed two times with 250 μL of chilled unlabelled 1 mM taurocholic acid dissolved in HEPES (Gibco 15630080)-buffered (10 mM) HBSS (Gibco 14175079) (pH 7.4). The plates were tapped against a paper towel after every wash to ensure maximum removal of blocking buffer.
as §1, with “well, with normal plate orientation).” for “well).”
as §2

| SMILES | IC50 [1] | IC50 [2] |
| --- | --- | --- |
| CCCCC1(CCCC)CN(c2ccccc2)c2cc(SC)c(OCC(O)C(=O)O)cc2S(=O)(=O)N1 (single isomer, unassigned) [Example 6, 3-((3,3-dibutyl-7-(methylthio)-1,1-dioxido-5-phenyl-2,3,4,5-tetrahydro-1,2,5-benzothiadiazepin-8-yl)oxy)-2-hydroxypropanoic acid] | 14 nM | 3660 nM |
| CCCCC1(CC)CN(c2ccccc2)c2cc(N(C)C)c(OCCC(=O)O)cc2S(=O)(=O)N1 (single isomer, unassigned) [Example 13, 3-((3-butyl-7-(dimethylamino)-3-ethyl-1,1-dioxido-5-phenyl-2,3,4,5-tetrahydro-1,2,5-benzothiadiazepin-8-yl)oxy)propanoic acid] | 15 nM | 2220 nM |
| CCCCC1(CC)CN(c2ccccc2)c2cc(SC)c(OCCC(=O)O)cc2S(=O)(=O)N1 (single isomer, unassigned) [Example 3, 3-((3-butyl-3-ethyl-7-(methylthio)-1,1-dioxido-5-phenyl-2,3,4,5-tetrahydro-1,2,5-benzothiadiazepin-8-yl)oxy)propanoic acid] | 23 nM | 283 nM |

Compounds with a lower IC50 [1], results first:

| IC50 [1] | IC50 [2] | SMILES |
| --- | --- | --- |
| 6 nM | 342 nM | CCCCC1(CC)CN(c2ccccc2)c2cc(SC)c(OCC(N)C(=O)O)cc2S(=O)(=O)N1 (stereo not shown) [Example 14, O-(3-butyl-3-ethyl-7-(methylthio)-1,1-dioxido-5-phenyl-2,3,4,5-tetrahydro-1,2,5-benzothiadiazepin-8-yl)serine] |
| 4 nM | 736 nM | CCCCC1(CC)CN(c2ccccc2)c2cc(SC)c(OCCC(=O)O)cc2S(=O)(=O)N1 (racemic) [Example 2, 3-((3-butyl-3-ethyl-7-(methylthio)-1,1-dioxido-5-phenyl-2,3,4,5-tetrahydro-1,2,5-benzothiadiazepin-8-yl)oxy)propanoic acid] |

Source: US11603359B2, “Benzothiadiazepine compounds and their use as bile acid modulators” (Albireo AB, priority 2019, dated 2023)
